Results published in US10344060B2 (priority 2013, dated 2019).
Read-outs that look alike come from different tables or passages of the source.

Molecular target: hNav1.7 (Homo sapiens, UniProt Q15858)
Test: cell-based
Format: cell-based
Settings: for Nav1.4/Nav1.7 / Nav1.5/Nav1.7: ratio of PX tonic IC50 values, Table 11
[1] = Table 12, PatchXpress, tonic block, read-out: PX hNav1.7 Tonic IC50

hNav1.7, sequence (Q15858 whole entry): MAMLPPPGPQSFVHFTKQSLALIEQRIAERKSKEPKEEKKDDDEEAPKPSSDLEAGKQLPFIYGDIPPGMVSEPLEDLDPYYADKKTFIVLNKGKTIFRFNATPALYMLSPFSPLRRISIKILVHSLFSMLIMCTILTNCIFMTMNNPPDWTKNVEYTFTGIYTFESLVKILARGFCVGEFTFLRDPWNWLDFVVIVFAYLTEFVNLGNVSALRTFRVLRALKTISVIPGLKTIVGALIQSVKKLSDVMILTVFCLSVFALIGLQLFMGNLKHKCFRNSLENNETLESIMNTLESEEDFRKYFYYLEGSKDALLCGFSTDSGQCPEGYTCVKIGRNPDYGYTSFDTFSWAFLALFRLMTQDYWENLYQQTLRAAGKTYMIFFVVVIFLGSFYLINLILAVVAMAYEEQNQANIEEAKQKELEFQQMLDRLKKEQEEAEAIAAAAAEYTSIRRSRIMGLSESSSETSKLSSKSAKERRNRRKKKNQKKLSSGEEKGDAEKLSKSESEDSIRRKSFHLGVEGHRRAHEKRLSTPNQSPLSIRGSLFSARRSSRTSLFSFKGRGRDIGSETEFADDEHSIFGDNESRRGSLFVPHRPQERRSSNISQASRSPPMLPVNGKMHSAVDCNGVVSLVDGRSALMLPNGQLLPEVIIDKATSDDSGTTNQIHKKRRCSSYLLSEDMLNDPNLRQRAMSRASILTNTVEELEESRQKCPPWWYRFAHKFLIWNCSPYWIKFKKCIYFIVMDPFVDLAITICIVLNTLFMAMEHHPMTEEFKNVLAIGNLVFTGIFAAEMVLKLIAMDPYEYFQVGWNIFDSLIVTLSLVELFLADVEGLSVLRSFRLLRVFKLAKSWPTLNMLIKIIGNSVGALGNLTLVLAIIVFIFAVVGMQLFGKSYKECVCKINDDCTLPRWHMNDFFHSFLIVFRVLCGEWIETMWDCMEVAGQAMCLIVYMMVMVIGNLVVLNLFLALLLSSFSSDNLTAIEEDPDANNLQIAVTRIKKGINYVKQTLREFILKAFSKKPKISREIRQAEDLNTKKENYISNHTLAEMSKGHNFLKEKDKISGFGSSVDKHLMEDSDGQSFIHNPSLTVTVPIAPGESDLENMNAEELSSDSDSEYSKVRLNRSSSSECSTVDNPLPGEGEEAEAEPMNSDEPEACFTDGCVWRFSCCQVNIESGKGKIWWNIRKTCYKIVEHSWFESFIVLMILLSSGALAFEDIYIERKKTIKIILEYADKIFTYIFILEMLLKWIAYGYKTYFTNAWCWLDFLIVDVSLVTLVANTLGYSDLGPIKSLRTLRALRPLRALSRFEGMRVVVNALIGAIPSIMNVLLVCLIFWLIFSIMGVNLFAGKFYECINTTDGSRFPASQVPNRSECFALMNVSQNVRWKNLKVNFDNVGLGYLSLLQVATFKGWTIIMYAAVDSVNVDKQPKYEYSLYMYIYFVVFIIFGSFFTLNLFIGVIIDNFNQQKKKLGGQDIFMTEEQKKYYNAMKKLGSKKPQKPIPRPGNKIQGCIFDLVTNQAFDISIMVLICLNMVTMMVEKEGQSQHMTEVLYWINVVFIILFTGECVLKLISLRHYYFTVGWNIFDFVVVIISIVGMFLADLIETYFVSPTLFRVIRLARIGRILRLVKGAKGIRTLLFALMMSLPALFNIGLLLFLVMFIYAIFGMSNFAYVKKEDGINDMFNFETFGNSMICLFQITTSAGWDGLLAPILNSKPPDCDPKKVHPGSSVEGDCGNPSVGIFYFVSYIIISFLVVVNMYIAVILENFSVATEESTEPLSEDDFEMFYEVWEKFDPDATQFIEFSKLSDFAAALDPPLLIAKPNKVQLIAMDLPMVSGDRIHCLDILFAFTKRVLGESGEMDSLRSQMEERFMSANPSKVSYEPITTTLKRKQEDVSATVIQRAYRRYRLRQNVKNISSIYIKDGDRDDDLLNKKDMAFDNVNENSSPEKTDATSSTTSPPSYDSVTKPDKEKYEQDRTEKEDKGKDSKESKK

SMILES | IC50 [1] | Nav1.4/Nav1.7 | other results
C#CC[C@@H]1NC(=O)[C@@H]2CSSC[C@H](NC(=O)[C@H](CCC(=O)O)NC(=O)[C@@H](N)CC#N)C(=O)N[C@@H](CCC(N)=O)C(=O)N[C@@H](CCCCN)C(=O)N[C@@H](Cc3c[nH]c4ccccc34)C(=O)N[C@@H](CCCC)C(=O)N[C@@H](Cc3c[nH]c4ccccc34)C(=O)N[C@@H]([C@@H](C)O)C(=O)N[C@H]3CSSC[C@H](NC(=O)[C@H](CCCNC(=N)N)NC(=O)[C@H](CC(C)C)NC(=O)CNC1=O)C(=O)N[C@@H](CCCCN)C(=O)N[C@@H](CC(C)C)C(=O)N[C@@H](Cc1c[nH]c4ccccc14)C(=O)N[C@H](C(=O)N[C@@H](CCCNC(=N)N)C(=O)N[C@@H](CCCCN)C(=O)N[C@@H](CCC(=O)O)C(=O)N[C@H](C(N)=O)[C@@H](C)CC)CSSC[C@H](NC(=O)[C@H](CCC(=O)O)NC(=O)[C@H](CCCNC(=N)N)NC(=O)[C@H](CCC(=O)O)NC(=O)[C@H](CCC(=O)O)NC(=O)[C@H](CC(=O)O)NC3=O)C(=O)N2 [compound 757] | > 1000 nM | – | –
CCCC[C@@H]1NC(=O)[C@H](Cc2c[nH]c3ccccc23)NC(=O)[C@H](CCCCN)NC(=O)[C@H](CCC(N)=O)NC(=O)[C@@H](NC(=O)[C@H](Cc2ccc(O)cc2)NC(=O)[C@@H](N)CC#N)CSSC[C@@H]2NC(=O)[C@@H]3CSSC[C@@H](C(=O)N[C@@H](CCCNC(=N)N)C(=O)N[C@@H](CCCCN)C(=O)N[C@H](C(=O)N[C@@H](Cc4c[nH]c5ccccc45)C(N)=O)[C@@H](C)CC)NC(=O)[C@H](Cc4c[nH]c5ccccc45)NC(=O)[C@H](CC(C)C)NC(=O)[C@H](CCCCN)NC(=O)[C@H](CSSC[C@H](NC(=O)[C@H]([C@@H](C)O)NC(=O)[C@H](Cc4c[nH]c5ccccc45)NC1=O)C(=O)N[C@@H](CC(=O)O)C(=O)N[C@@H](CO)C(=O)N[C@@H](CCCCN)C(=O)N[C@@H](CCCNC(=N)N)C(=O)N[C@@H](C)C(=O)N3)NC(=O)[C@H](CCCCNC(=O)CCOCCOCCOCCOCCOCCOCCOCCOCCOCCOCCOCCOCCN)NC(=O)[C@H](CC(C)C)NC(=O)CNC(=O)[C@H](CCC(=O)O)NC2=O [compound 476] | – | 13 | Nav1.5/Nav1.7: 71
CCCC[C@@H]1NC(=O)[C@H](Cc2c[nH]c3ccccc23)NC(=O)[C@H](CCCCN)NC(=O)[C@H](CCC(N)=O)NC(=O)[C@@H](NC(=O)[C@H](Cc2ccc(O)cc2)NC(=O)[C@@H](N)Cc2cn(CCOCCOCCOCCOCCOCCOCCOCCOCCOCCOCCOCCOCCOCCOCCOCCOCCOCCOCCOCCOCCOCCOCCOCCNC(=O)c3cc(CNC(=O)CSCc4ccccc4)cc(C(=O)NCCOCCOCCOCCOCCOCCOCCOCCOCCOCCOCCOCCOCCOCCOCCOCCOCCOCCOCCOCCOCCOCCOCCOCCn4cc(C[C@H](N)C(=O)N[C@@H](Cc5ccc(O)cc5)C(=O)N[C@H]5CSSC[C@@H]6NC(=O)[C@@H]7CSSC[C@@H](C(=O)N[C@@H](CCCNC(=N)N)C(=O)N[C@@H](CCCCN)C(=O)N[C@H](C(=O)N[C@H](C(N)=O)[C@@H](C)CC)[C@@H](C)CC)NC(=O)[C@H](Cc8c[nH]c9ccccc89)NC(=O)[C@H](CC(C)C)NC(=O)[C@H](CCCCN)NC(=O)[C@H](CSSC[C@H](NC(=O)[C@H]([C@@H](C)O)NC(=O)[C@H](Cc8c[nH]c9ccccc89)NC(=O)[C@H](CCCC)NC(=O)[C@H](Cc8c[nH]c9ccccc89)NC(=O)[C@H](CCCCN)NC(=O)[C@H](CCC(N)=O)NC5=O)C(=O)N[C@@H](CC(=O)O)C(=O)N[C@@H](CO)C(=O)N[C@@H](CCCCN)C(=O)N[C@@H](CCCNC(=N)N)C(=O)N[C@@H](C)C(=O)N7)NC(=O)[C@H](CCCNC(=N)N)NC(=O)[C@H](CC(C)C)NC(=O)CNC(=O)[C@H](CCC(=O)O)NC6=O)nn4)c3)nn2)CSSC[C@@H]2NC(=O)[C@@H]3CSSC[C@@H](C(=O)N[C@@H](CCCNC(=N)N)C(=O)N[C@@H](CCCCN)C(=O)N[C@H](C(=O)N[C@H](C(N)=O)[C@@H](C)CC)[C@@H](C)CC)NC(=O)[C@H](Cc4c[nH]c5ccccc45)NC(=O)[C@H](CC(C)C)NC(=O)[C@H](CCCCN)NC(=O)[C@H](CSSC[C@H](NC(=O)[C@H]([C@@H](C)O)NC(=O)[C@H](Cc4c[nH]c5ccccc45)NC1=O)C(=O)N[C@@H](CC(=O)O)C(=O)N[C@@H](CO)C(=O)N[C@@H](CCCCN)C(=O)N[C@@H](CCCNC(=N)N)C(=O)N[C@@H](C)C(=O)N3)NC(=O)[C@H](CCCNC(=N)N)NC(=O)[C@H](CC(C)C)NC(=O)CNC(=O)[C@H](CCC(=O)O)NC2=O [Homodimeric Peptide No. 2] | – | – | Wash out (PatchXpress Nav1.7, whether block washes out (Yes/No)): No; IC50 (read-out: Nav1.7 PX IC50): 0.241 nM
CCCC[C@@H]1NC(=O)[C@H](Cc2c[nH]c3ccccc23)NC(=O)[C@H](CCCCN)NC(=O)[C@H](CCC(N)=O)NC(=O)[C@@H](NC(=O)[C@H](Cc2ccc(O)cc2)NC(=O)[C@@H](N)CC#N)CSSC[C@@H]2NC(=O)[C@@H]3CSSC[C@@H](C(=O)N[C@@H](CCCNC(=N)N)C(=O)N[C@@H](CCCCN)C(=O)N[C@@H](CCC(=O)O)C(=O)N[C@H](C(N)=O)[C@@H](C)CC)NC(=O)[C@H](Cc4c[nH]c5ccccc45)NC(=O)[C@H](CC(C)C)NC(=O)[C@H](CCCCN)NC(=O)[C@H](CSSC[C@H](NC(=O)[C@H]([C@@H](C)O)NC(=O)[C@H](Cc4c[nH]c5ccccc45)NC1=O)C(=O)N[C@@H](CC(=O)O)C(=O)N[C@@H](CO)C(=O)N[C@@H](CCCCN)C(=O)N[C@@H](CCCNC(=N)N)C(=O)N[C@@H](C)C(=O)N3)NC(=O)[C@H](CCCNC(=N)N)NC(=O)[C@H](CC(C)C)NC(=O)CNC(=O)[C@H](CCCCNC(=O)CCOCCOCCOCCOCCOCCOCCOCCOCCOCCOCCOCCOCCN)NC2=O [compound 456] | – | 68 | Nav1.5/Nav1.7: 967
C#CC[C@H](N)C(=O)N[C@@H](Cc1ccc(O)cc1)C(=O)N[C@H]1CSSC[C@@H]2NC(=O)[C@@H]3CSSC[C@@H](C(=O)N[C@@H](CCCNC(=N)N)C(=O)N[C@@H](CCC(=O)O)C(=O)N[C@@H](CCC(=O)O)C(=O)N[C@H](C(N)=O)[C@@H](C)CC)NC(=O)[C@H](Cc4c[nH]c5ccccc45)NC(=O)[C@H](CC(C)C)NC(=O)[C@H](CCCCN)NC(=O)[C@H](CSSC[C@H](NC(=O)[C@H]([C@@H](C)O)NC(=O)[C@H](Cc4c[nH]c5ccccc45)NC(=O)[C@H](CCCC)NC(=O)[C@H](Cc4c[nH]c5ccccc45)NC(=O)[C@H](CCCCN)NC(=O)[C@H](CCC(N)=O)NC1=O)C(=O)N[C@@H](CC(=O)O)C(=O)N[C@@H](CO)C(=O)N[C@@H](CCCCN)C(=O)N[C@@H](CCCNC(=N)N)C(=O)N[C@@H](C)C(=O)N3)NC(=O)[C@H](CCCNC(=N)N)NC(=O)[C@H](CC(C)C)NC(=O)CNC(=O)[C@H](CCC(=O)O)NC2=O [compound 725] | > 10000 nM | – | –
CCCC[C@@H]1NC(=O)[C@H](Cc2c[nH]c3ccccc23)NC(=O)[C@H](CCCCN)NC(=O)[C@H](CCC(N)=O)NC(=O)[C@@H](NC(=O)[C@H](Cc2ccc(O)cc2)NC(=O)[C@H](N)CC(C)C)CSSC[C@@H]2NC(=O)[C@@H]3CSSC[C@@H](C(=O)N[C@@H](CCCNC(=N)N)C(=O)N[C@@H](CCCCN)C(=O)N[C@@H](CCC(=O)O)C(=O)N[C@H](C(N)=O)[C@@H](C)CC)NC(=O)[C@H](Cc4c[nH]c5ccccc45)NC(=O)[C@H](CC(C)C)NC(=O)[C@H](CCCCN)NC(=O)[C@H](CSSC[C@H](NC(=O)[C@H]([C@@H](C)O)NC(=O)[C@H](Cc4c[nH]c5ccccc45)NC1=O)C(=O)N[C@@H](CC(=O)O)C(=O)N[C@@H](CO)C(=O)N[C@@H](CCCCN)C(=O)N[C@@H](CCCNC(=N)N)C(=O)N[C@@H](C)C(=O)N3)NC(=O)[C@H](CCCNC(=N)N)NC(=O)[C@H](CC(C)C)NC(=O)CNC(=O)[C@H](CCCCNC(=O)CCOCCOCCOCCOCCOCCOCCOCCOCCOCCOCCOCCOCCN)NC2=O [compound 464] | – | 18 | –
C#CC[C@H](N)C(=O)N[C@@H](Cc1ccc(O)cc1)C(=O)N[C@H]1CSSC[C@@H]2NC(=O)[C@@H]3CSSC[C@@H](C(=O)N[C@@H](CCCNC(=N)N)C(=O)N[C@@H](CCCCN)C(=O)N[C@@H](CCC(=O)O)C(=O)N[C@H](C(N)=O)[C@@H](C)CC)NC(=O)[C@H](Cc4c[nH]c5ccccc45)NC(=O)[C@H](CC(C)C)NC(=O)[C@H](CCCCN)NC(=O)[C@H](CSSC[C@H](NC(=O)[C@H]([C@@H](C)O)NC(=O)[C@H](Cc4c[nH]c5ccccc45)NC(=O)[C@H](CCCC)NC(=O)[C@H](Cc4c[nH]c5ccccc45)NC(=O)[C@H](CCCCN)NC(=O)[C@H](CCC(N)=O)NC1=O)C(=O)N[C@@H](CC(=O)O)C(=O)N[C@@H](CO)C(=O)N[C@@H](CCCCN)C(=O)N[C@@H](CCCNC(=N)N)C(=O)N[C@@H](C)C(=O)N3)NC(=O)[C@H](CCCNC(=N)N)NC(=O)[C@H](CCCNC(=N)N)NC(=O)CNC(=O)[C@H](CCC(=O)O)NC2=O [compound 705] | > 1000 nM | – | –
C#CC[C@H](N)C(=O)N[C@@H](Cc1ccc(O)cc1)C(=O)N[C@H]1CSSC[C@@H]2NC(=O)[C@@H]3CSSC[C@@H](C(=O)N[C@@H](CCCNC(=N)N)C(=O)N[C@@H](CCCCN)C(=O)N[C@@H](CCC(=O)O)C(=O)N[C@H](C(N)=O)[C@@H](C)CC)NC(=O)[C@H](Cc4c[nH]c5ccccc45)NC(=O)[C@H](CC(C)C)NC(=O)[C@H](CCCCN)NC(=O)[C@H](CSSC[C@H](NC(=O)[C@H]([C@@H](C)O)NC(=O)[C@H](Cc4c[nH]c5ccccc45)NC(=O)[C@H](CCCC)NC(=O)[C@H](Cc4c[nH]c5ccccc45)NC(=O)[C@H](CCCCN)NC(=O)[C@H](CCC(N)=O)NC1=O)C(=O)N[C@@H](CC(=O)O)C(=O)N[C@@H](CO)C(=O)N[C@@H](CCCCN)C(=O)N[C@@H](CCCNC(=N)N)C(=O)N[C@@H](C)C(=O)N3)NC(=O)[C@H](CCCNC(=N)N)NC(=O)[C@H](CCCCN)NC(=O)CNC(=O)[C@H](CCC(=O)O)NC2=O [compound 704] | > 1000 nM | – | –
C#CC[C@H](N)C(=O)N[C@@H](Cc1ccc(O)cc1)C(=O)N[C@H]1CSSC[C@@H]2NC(=O)[C@@H]3CSSC[C@@H](C(=O)N[C@@H](CCCNC(=N)N)C(=O)N[C@@H](CCCCN)C(=O)N[C@@H](CCC(=O)O)C(=O)N[C@H](C(N)=O)[C@@H](C)CC)NC(=O)[C@H](Cc4ccccc4)NC(=O)[C@H](CC(C)C)NC(=O)[C@H](CCCCN)NC(=O)[C@H](CSSC[C@H](NC(=O)[C@H]([C@@H](C)O)NC(=O)[C@H](Cc4c[nH]c5ccccc45)NC(=O)[C@H](CCCC)NC(=O)[C@H](Cc4c[nH]c5ccccc45)NC(=O)[C@H](CCCCN)NC(=O)[C@H](CCC(N)=O)NC1=O)C(=O)N[C@@H](CC(=O)O)C(=O)N[C@@H](CO)C(=O)N[C@@H](CCCCN)C(=O)N[C@@H](CCCNC(=N)N)C(=O)N[C@@H](C)C(=O)N3)NC(=O)[C@H](CCCNC(=N)N)NC(=O)[C@H](CC(C)C)NC(=O)CNC(=O)[C@H](CCC(=O)O)NC2=O [compound 853] | 15.3 nM | – | –
